Laboratory results from PubChem BioAssay (NCI).
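1) Cells in 96-well plates. 2) Compound, 48 h, 5 concentrations. 3) Linear interpolation between surrounding doses. 4) Unreached endpoint = highest concentration. At the TGI there is no net growth.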

Columns and labels:
Assay in all cases: NCI-60 cell line screen, 48 h
786-0 renal = tested on: 786-0 renal
A498 renal = tested on: A498 renal
A549 NSCLC = tested on: A549 NSCLC
ACHN renal = tested on: ACHN renal
CAKI-1 renal = tested on: CAKI-1 renal
CCRF-CEM leukemia = tested on: CCRF-CEM leukemia
COLO 205 colon = tested on: COLO 205 colon
DU-145 prostate = tested on: DU-145 prostate
EKVX NSCLC = tested on: EKVX NSCLC
HCC-2998 colon = tested on: HCC-2998 colon
HCT-116 colon = tested on: HCT-116 colon
HCT-15 colon = tested on: HCT-15 colon
HL-60(TB) leukemia = tested on: HL-60(TB) leukemia
HOP-62 NSCLC = tested on: HOP-62 NSCLC
HOP-92 NSCLC = tested on: HOP-92 NSCLC
HS 578T breast = tested on: HS 578T breast
HT29 colon = tested on: HT29 colon
IGROV1 ovarian = tested on: IGROV1 ovarian
K-562 leukemia = tested on: K-562 leukemia
KM12 colon = tested on: KM12 colon
LOX IMVI melanoma = tested on: LOX IMVI melanoma
M14 melanoma = tested on: M14 melanoma
MALME-3M melanoma = tested on: MALME-3M melanoma
MCF7 breast = tested on: MCF7 breast
MDA-MB-231 breast = tested on: MDA-MB-231 breast
MDA-MB-435 = tested on: MDA-MB-435
MDA-N = tested on: MDA-N
MOLT-4 leukemia = tested on: MOLT-4 leukemia
NCI-H226 lung = tested on: NCI-H226 lung
NCI-H23 lung = tested on: NCI-H23 lung
NCI-H460 lung = tested on: NCI-H460 lung
NCI-H522 lung = tested on: NCI-H522 lung
NCI/ADR-RES ovarian = tested on: NCI/ADR-RES ovarian
OVCAR-3 ovarian = tested on: OVCAR-3 ovarian
OVCAR-4 ovarian = tested on: OVCAR-4 ovarian
OVCAR-5 ovarian = tested on: OVCAR-5 ovarian
OVCAR-8 ovarian = tested on: OVCAR-8 ovarian
PC-3 prostate = tested on: PC-3 prostate
RPMI-8226 leukemia = tested on: RPMI-8226 leukemia
RXF 393 renal = tested on: RXF 393 renal
SF-268 CNS = tested on: SF-268 CNS
SF-295 CNS = tested on: SF-295 CNS
SF-539 CNS = tested on: SF-539 CNS
SK-MEL-2 melanoma = tested on: SK-MEL-2 melanoma
SK-MEL-28 melanoma = tested on: SK-MEL-28 melanoma
SK-MEL-5 melanoma = tested on: SK-MEL-5 melanoma
SK-OV-3 ovarian = tested on: SK-OV-3 ovarian
SN12C renal = tested on: SN12C renal
SNB-19 CNS = tested on: SNB-19 CNS
SNB-75 CNS = tested on: SNB-75 CNS
SR leukemia = tested on: SR leukemia
SW-620 colon = tested on: SW-620 colon
T-47D breast = tested on: T-47D breast
TK-10 renal = tested on: TK-10 renal
U251 CNS = tested on: U251 CNS
UACC-257 melanoma = tested on: UACC-257 melanoma
UACC-62 melanoma = tested on: UACC-62 melanoma

O=c1c2c(F)c(F)c(F)c(F)c2sc2nccn12
TGI (786-0 renal): 29.3 µM | TGI (A498 renal): 35.1 µM | TGI (A549 NSCLC): 36.7 µM | TGI (ACHN renal): 30 µM | TGI (CAKI-1 renal): 33.3 µM | TGI (CCRF-CEM leukemia): 29.6 µM | TGI (COLO 205 colon): 32.7 µM | TGI (DU-145 prostate): 41.9 µM | TGI (EKVX NSCLC): 50.2 µM | TGI (HCC-2998 colon): 31.9 µM | TGI (HCT-116 colon): 27.7 µM | TGI (HCT-15 colon): 29 µM | TGI (HL-60(TB) leukemia): 4.14 µM | TGI (HOP-62 NSCLC): 42.3 µM | TGI (HOP-92 NSCLC): 39.4 µM | TGI (HS 578T breast): 76.2 µM | TGI (HT29 colon): 34.7 µM | TGI (IGROV1 ovarian): 32.3 µM | TGI (K-562 leukemia): 29.4 µM | TGI (KM12 colon): 32.2 µM | TGI (LOX IMVI melanoma): 26.7 µM | TGI (M14 melanoma): 32 µM | TGI (MALME-3M melanoma): 35.4 µM | TGI (MCF7 breast): 37.9 µM | TGI (MDA-MB-231 breast): 35.9 µM | TGI (MDA-MB-435): 28.6 µM | TGI (MDA-N): 29.4 µM | TGI (MOLT-4 leukemia): 9.62 µM | TGI (NCI-H226 lung): 52.3 µM | TGI (NCI-H23 lung): 34.9 µM | TGI (NCI-H460 lung): 27.3 µM | TGI (NCI-H522 lung): 37.2 µM | TGI (NCI/ADR-RES ovarian): 93.3 µM | TGI (OVCAR-3 ovarian): 29.8 µM | TGI (OVCAR-4 ovarian): 35.8 µM | TGI (OVCAR-5 ovarian): 36.3 µM | TGI (OVCAR-8 ovarian): 44.8 µM | TGI (PC-3 prostate): 35.9 µM | TGI (RPMI-8226 leukemia): 42.4 µM | TGI (RXF 393 renal): 32 µM | TGI (SF-268 CNS): 36.2 µM | TGI (SF-295 CNS): 36.3 µM | TGI (SF-539 CNS): 31.4 µM | TGI (SK-MEL-2 melanoma): 38.5 µM | TGI (SK-MEL-28 melanoma): 53.5 µM | TGI (SK-MEL-5 melanoma): 35.8 µM | TGI (SK-OV-3 ovarian): 36 µM | TGI (SN12C renal): 33.3 µM | TGI (SNB-19 CNS): 35.9 µM | TGI (SNB-75 CNS): 50.4 µM | TGI (SR leukemia): 18.7 µM | TGI (SW-620 colon): 33 µM | TGI (T-47D breast): 24.2 µM | TGI (TK-10 renal): 32.8 µM | TGI (U251 CNS): 29.2 µM | TGI (UACC-257 melanoma): 45.5 µM | TGI (UACC-62 melanoma): 31.8 µM
